Measured values taken from patent US4272437A, “Antibacterial agents, and 4-thio azetidinone intermediates” (priority 1979, dated 1981).
Converted amounts (≈) assume the structure as drawn. Read-outs that look alike come from different tables or passages of the source.

Experiments:
Pr. mirabilis A-9900 = assay: MIC, tube dilution, Proteus mirabilis A9900; format: cell-based; conditions: Proteus mirabilis, A9900, Proteus mirabilis A9900; overnight 37° C.; read-out: Minimum Inhibitory Concentration (M.I.C.)
Excerpt: (§1) Representative compounds of the present invention were subjected to in vitro antibiotic screening against a variety of microorganisms.

Str. pyogenes A-9604 = assay: MIC, tube dilution, Streptococcus pyogenes A9604; format: cell-based; conditions: Streptococcus pyogenes, A9604, Str. pyogenes A9604; overnight 37° C., Nutrient Broth; read-out: Minimum Inhibitory Concentration (M.I.C.)
Excerpt: as §1

[1] = system: Staph. aureus (Pen-Res) A-9606; assay: MIC, tube dilution, Staphylococcus aureus A9606 (Pen-Res); format: cell-based; conditions: Staphylococcus aureus, Staph. aureus A9606 (Pen-Res); overnight 37° C.; read-out: Minimum Inhibitory Concentration (M.I.C.)
Excerpt: as §1

Ps. aeruginosa A-21213 = assay: MIC, tube dilution, Pseudomonas aeruginosa A21213; format: cell-based; conditions: overnight 37° C., read-out: Minimum Inhibitory Concentration (M.I.C.)
Excerpt: as §1

K. pneumoniae A-15130 = assay: MIC, tube dilution, Klebsiella pneumoniae A15130; format: cell-based; conditions: Klebsiella pneumoniae, A15130, K. pneumoniae A15130; overnight 37° C.; read-out: Minimum Inhibitory Concentration (M.I.C.)
Excerpt: as §1

Ent. cloacae A-9659 = assay: MIC, tube dilution, Enterobacter cloacae A9659; format: cell-based; conditions: Enterobacter cloacae, A9659, Enterobacter cloacae A9659; overnight 37° C.; read-out: Minimum Inhibitory Concentration (M.I.C.)
Excerpt: as §1

Pr. morganii A-15153 = assay: MIC, tube dilution, Proteus morganii A15153; format: cell-based; conditions: Morganella morganii, A15153, Proteus morganii A15153; overnight 37° C.; read-out: Minimum Inhibitory Concentration (M.I.C.)
Excerpt: as §1

Proteus rettgeri A21203 = assay: MIC, tube dilution, Proteus rettgeri A21203; format: cell-based; conditions: Providencia rettgeri, A21203, Proteus rettgeri A21203; overnight 37° C.; read-out: Minimum Inhibitory Concentration (M.I.C.)
Excerpt: as §1

Staph. aureus A-9537 = assay: MIC, tube dilution, Staphylococcus aureus A9537; format: cell-based; conditions: Staphylococcus aureus, A9537, Staph. aureus A9537; overnight 37° C., Nutrient Broth; read-out: Minimum Inhibitory Concentration (M.I.C.)
Excerpt: as §1

[2] = system: Staph. aureus A-9537 and 50% serum; assay: MIC, tube dilution, Staph. aureus A9537 + 50% serum; format: cell-based, Staphylococcus aureus; conditions: Staphylococcus aureus, overnight 37° C., read-out: Minimum Inhibitory Concentration (M.I.C.)
Excerpt: as §1

Ser. marcescens A-20019 = assay: MIC, tube dilution, Serratia marcescens A20019; format: cell-based; conditions: Serratia marcescens, A20019, Serratia marcescens A20019; overnight 37° C.; read-out: Minimum Inhibitory Concentration (M.I.C.)
Excerpt: as §1

Pr. vulgaris A-9716 = assay: MIC, tube dilution, Proteus vulgaris / Proteus mirabilis A9716; format: cell-based, Proteus vulgaris (name changed to Proteus mirabilis); conditions: Proteus vulgaris, A9716, Proteus vulgaris / Proteus mirabilis A9716; overnight 37° C.; read-out: Minimum Inhibitory Concentration (M.I.C.)
Excerpt: as §1

E. coli A-20341-1 = assay: MIC, tube dilution, Escherichia coli A20341-1; format: cell-based
Excerpt: as §1

Ent. cloacae A-9656 = assay: MIC, tube dilution, Enterobacter cloacae A9656; format: cell-based; conditions: Enterobacter cloacae, A9656, Enterobacter cloacae A9656; overnight 37° C.; read-out: Minimum Inhibitory Concentration (M.I.C.)
Excerpt: as §1

[3] = system: Staph. aureus (Meth-Res) A-15097; assay: MIC, tube dilution, Staphylococcus aureus A15097 (Meth-Res); format: cell-based; conditions: Staphylococcus aureus, overnight 37° C.
Excerpt: as §1

Ps. aeruginosa A-9843A = assay: MIC, tube dilution, Pseudomonas aeruginosa A9843A; format: cell-based; conditions: Pseudomonas aeruginosa, A9843A, read-out: Minimum Inhibitory Concentration (M.I.C.), Pseudomonas aeruginosa A9843A; overnight 37° C.
Excerpt: as §1

[4] = system: Klebsiella species A20468; assay: MIC, tube dilution, Klebsiella species A20468; format: cell-based; conditions: Klebsiella species (K. pneumoniae) A20468; overnight 37° C.; read-out: Minimum Inhibitory Concentration (M.I.C.)
Excerpt: as §1

Str. pneumoniae A-9585 = assay: MIC, tube dilution, Streptococcus pneumoniae A9585; format: cell-based; conditions: Streptococcus pneumoniae, A9585, Str. pneumoniae A9585; overnight 37° C., Nutrient Broth; read-out: Minimum Inhibitory Concentration (M.I.C.)
Excerpt: as §1

Str. faecalis A-20688 = assay: MIC, tube dilution, Streptococcus faecalis A20688; format: cell-based; conditions: Enterococcus faecalis, A20688, Str. faecalis A20688; overnight 37° C.; read-out: Minimum Inhibitory Concentration (M.I.C.)
Excerpt: as §1

Proteus vulgaris A21559 = assay: MIC, tube dilution, Proteus vulgaris A21559; format: cell-based; conditions: Proteus vulgaris, A21559, Proteus vulgaris A21559; overnight 37° C.; read-out: Minimum Inhibitory Concentration (M.I.C.)
Excerpt: as §1

E. coli A-15119 = assay: MIC, tube dilution, Escherichia coli A15119; format: cell-based; conditions: Escherichia coli, A15119, E. coli A15119; overnight 37° C.; read-out: Minimum Inhibitory Concentration (M.I.C.)
Excerpt: as §1

| Compound | MIC (Pr. mirabilis A-9900) | MIC (Str. pyogenes A-9604) | MIC [1] | MIC (K. pneumoniae A-15130) | MIC (Ent. cloacae A-9659) | MIC (Pr. morganii A-15153) | MIC (Proteus rettgeri A21203) | MIC (Staph. aureus A-9537) | MIC [2] | MIC (Ser. marcescens A-20019) | MIC (Ent. cloacae A-9656) | MIC (Ps. aeruginosa A-9843A) | MIC [4] | MIC (Str. pneumoniae A-9585) | MIC (Str. faecalis A-20688) | also measured |
| --- | --- | --- | --- | --- | --- | --- | --- | --- | --- | --- | --- | --- | --- | --- | --- | --- |
| CC1(CC2=C(C(=O)O)N3C(=O)CC3S2)OCCO1 (stereo not drawn) [Preparation 22, 2-(Acetonyl-ethylene-ketal)penem-3-carboxylic Acid] | 16 µg/mL (≈ 59 µM) | 0.25 µg/mL (≈ 0.922 µM) | 32 µg/mL (≈ 118 µM) | 32 µg/mL (≈ 118 µM) | 63 µg/mL (≈ 232 µM) | 8 µg/mL (≈ 29.5 µM) | 16 µg/mL (≈ 59 µM) | 0.5 µg/mL (≈ 1.84 µM) | 32 µg/mL | 63 µg/mL (≈ 232 µM) | 63 µg/mL (≈ 232 µM) | 125 µg/mL (≈ 461 µM) | 125 µg/mL (≈ 461 µM) | 0.13 µg/mL (≈ 0.479 µM) | 125 µg/mL (≈ 461 µM) | MIC (Ps. aeruginosa A-21213; Pseudomonas aeruginosa A21213): 125 µg/mL (≈ 461 µM); MIC (Pr. vulgaris A-9716): 4 µg/mL (≈ 14.7 µM); MIC (E. coli A-20341-1; Escherichia coli, A203411; E. coli A20341-1; overnight 37° C.; read-out: Minimum Inhibitory Concentration (M.I.C.)): 125 µg/mL (≈ 461 µM); MIC ([3]; read-out: Minimum Inhibitory Concentration (M.I.C.), Staph. aureus A15097 (Meth-Res)): > 125 µg/mL |
| COCOC[C@@H](O)[C@H]1C(=O)N2C(C(=O)O)=C(C)S[C@H]12 (relative stereo) [Example 106, (1'S,5R,6S and 1'R,5S,6R) 6-(1'-Hydroxy-2'-methoxymethoxy-2'-ethyl)-2-methylpenem-3-carboxylic acid (Isomer B)] | 63 µg/mL (≈ 218 µM) | 32 µg/mL (≈ 111 µM) | > 63 µg/mL | > 63 µg/mL | > 63 µg/mL | > 63 µg/mL | 63 µg/mL (≈ 218 µM) | 63 µg/mL (≈ 218 µM) | > 32 µg/mL | 63 µg/mL (≈ 218 µM) | 63 µg/mL (≈ 218 µM) | 63 µg/mL (≈ 218 µM) | > 63 µg/mL | 32 µg/mL (≈ 111 µM) | > 63 µg/mL | MIC (Proteus vulgaris A21559): > 63 µg/mL; MIC (Ps. aeruginosa A-21213; Pseudomonas aeruginosa, A21213, Pseudomonas aeruginosa A21213): 63 µg/mL (≈ 218 µM); MIC (E. coli A-15119): 63 µg/mL (≈ 218 µM); MIC (E. coli A-20341-1; Escherichia coli, A203411, E. coli A20341-1; overnight 37° C.; read-out: Minimum Inhibitory Concentration (M.I.C.)): 63 µg/mL (≈ 218 µM); MIC ([3]; Staph. aureus A15097 (Meth-Res), read-out: Minimum Inhibitory Concentration (M.I.C.)): > 63 µg/mL |
